# Assay results from article PMC7704689 (Bioorganic & medicinal chemistry letters, 2020).
# Test system: Raji cells, a Burkitt's lymphoma (BL) cell line
# Experiment: Viability of Raji cells
# Format: cell-based, human
# Conditions: 100 nM, 72 h
row,Structure (SMILES),inhibition of viability of Raji cells
1,COC(=O)[C@@]12OC[C@]34[C@H]([C@@H](O)[C@@H]1O)[C@@]1(C)CC(=O)C(OC(=O)[C@H](C)NC(=O)OC(C)(C)C)=C(C)[C@@H]1C[C@H]3OC(=O)[C@H](OC(=O)C=C(C)C)[C@@H]24 [Compound 6],moderate inhibition
2,COC(=O)[C@@]12OC[C@]34[C@H]([C@@H](O)[C@@H]1O)[C@@]1(C)CC(=O)C(OC(=O)[C@@H]5CCCN5C(=O)OC(C)(C)C)=C(C)[C@@H]1C[C@H]3OC(=O)[C@H](OC(=O)C=C(C)C)[C@@H]24 [Compound 11],moderate inhibition
3,COC(=O)[C@@]12OC[C@]34[C@H]([C@@H](O)[C@@H]1O)[C@@]1(C)CC(=O)C(OC(=O)CNC(=O)CN)=C(C)[C@@H]1C[C@H]3OC(=O)[C@H](OC(=O)C=C(C)C)[C@@H]24 [Compound 20],potent activities comparable to or higher than the parent brusatol
4,COC(=O)[C@@]12OC[C@]34[C@H]([C@@H](O)[C@@H]1O)[C@@]1(C)CC(=O)C(OC(=O)C[C@H](C)NC(=O)C[C@H](C)N)=C(C)[C@@H]1C[C@H]3OC(=O)[C@H](OC(=O)C=C(C)C)[C@@H]24 [Compound 21],potent activities comparable to or higher than the parent brusatol
5,COC(=O)[C@@]12OC[C@]34[C@H]([C@@H](O)[C@@H]1O)[C@@]1(C)CC(=O)C(OC(=O)[C@H](C)NC(=O)[C@H](C)N)=C(C)[C@@H]1C[C@H]3OC(=O)[C@H](OC(=O)C=C(C)C)[C@@H]24 [Compound 22],not active
6,COC(=O)[C@@]12OC[C@]34[C@H]([C@@H](O)[C@@H]1O)[C@@]1(C)CC(=O)C(OC(=O)CNC(=O)CNC(=O)CN)=C(C)[C@@H]1C[C@H]3OC(=O)[C@H](OC(=O)C=C(C)C)[C@@H]24 [Compound 23],potent activities comparable to or higher than the parent brusatol
7,COC(=O)[C@@]12OC[C@]34[C@H]([C@@H](O)[C@@H]1O)[C@@]1(C)CC(=O)C(OC(=O)C[C@H](C)NS(C)(=O)=O)=C(C)[C@@H]1C[C@H]3OC(=O)[C@H](OC(=O)C=C(C)C)[C@@H]24 [Compound 29],lost activities
8,COC(=O)[C@@]12OC[C@]34[C@H]([C@@H](O)[C@@H]1O)[C@@]1(C)CC(=O)C(OCC(=O)NCCN)=C(C)[C@@H]1C[C@H]3OC(=O)[C@H](OC(=O)C=C(C)C)[C@@H]24 [Compound 40],moderate activity
9,COC(=O)[C@@]12OC[C@]34[C@H]([C@@H](O)[C@@H]1O)[C@@]1(C)CC(=O)C(OC(=O)CNC(=O)OC(C)(C)C)=C(C)[C@@H]1C[C@H]3OC(=O)[C@H](OC(=O)C=C(C)C)[C@@H]24 [UPB-15],moderate inhibition
10,"COC(=O)[C@@]12OC[C@]34[C@H]([C@@H](O)[C@@H]1O)[C@@]1(C)CC(=O)C(OC(=O)C[C@H](C)N)=C(C)[C@@H]1C[C@H]3OC(=O)[C@H](OC(=O)C=C(C)C)[C@@H]24 [UPB-26, 3-(3-β-HoAla)-brusatol]",potent activities comparable to or higher than the parent brusatol
11,COC(=O)[C@@]12OC[C@]34[C@H]([C@@H](O)[C@@H]1O)[C@@]1(C)CC(=O)C(OC(=O)[C@@H]5CCCN5)=C(C)[C@@H]1C[C@H]3OC(=O)[C@H](OC(=O)C=C(C)C)[C@@H]24 [UPB-31],potent activities comparable to or higher than the parent brusatol

# Test system: MOLT-4, SU-DHL-6, SU-DHL-10, RPMI-8226 and LCL1 cells
# Experiment: Activity on five other hematologic malignancy derived cell lines
# Format: cell-based, human
# Conditions: MOLT-4, SU-DHL-6, SU-DHL-10, RPMI-8226, LCL1
row,Structure (SMILES),activity on five other cell lines
1,COC(=O)[C@@]12OC[C@]34[C@H]([C@@H](O)[C@@H]1O)[C@@]1(C)CC(=O)C(OCC(=O)NCCN)=C(C)[C@@H]1C[C@H]3OC(=O)[C@H](OC(=O)C=C(C)C)[C@@H]24 [Compound 40],moderate to good activities

# Test system: NOD/SCID mice
# Experiment: not given
# Conditions: mouse, in vivo
row,Structure (SMILES),mice survived (of 4 per group)
1,"COC(=O)[C@@]12OC[C@]34[C@H]([C@@H](O)[C@@H]1O)[C@@]1(C)CC(=O)C(OC(=O)C[C@H](C)N)=C(C)[C@@H]1C[C@H]3OC(=O)[C@H](OC(=O)C=C(C)C)[C@@H]24 [UPB-26, 3-(3-β-HoAla)-brusatol]",four
